Experimental data as given in US20110046040A1, “Microorganism-inactivating agent” (CHISSO CORPORATION, priority 2009, published 2011).

Experiments:
Format in all cases: cell-based
Salmonella choleraesuis = assay: inactivation of microorganisms in water, number of cells in supernatant
Protocol: (§1) Each test microbe was inoculated to nutrient broth and cultured with shaking at the optimum temperature of the test microbe until the late logarithmic phase. From the microbe culture, the microbe was collected, and the collected microbe was washed with 1.5 mL of physiological saline 2 to 3 times (centrifugation at 13000 rpm for 1 minute) and suspended in 1.5 mL of physiological saline. From the suspension, a 1 mL aliquot was recovered, and this was added to 9 mL of sterile water, followed by sufficient stirring of the resulting suspension (this was used as 10^−1 dilution). From the 10^−1 dilution, 10^−2 to 10^−8 dilutions were sequentially prepared. Each dilution was smeared on a film medium (Sanita-kun; for E. coli and coliform bacteria, for Staphylococcus aureus, for Salmonella, for aerobic bacteria or for fungi: Chisso Corporation) in an amount of 1 mL, followed by culturing at the optimum temperature of the test microbe for 24 to 72 hours and measurement of the number of cells on the film medium.
(§2) To a sterilized beaker, 500 mL of sterilized water was placed, and 0.20 mL of microbe culture of 10^6 to 10^10 cells/mL was inoculated thereto, to attain an initial cell number of 10^3 to 10^7 cells/mL. Unless otherwise specified, the pH was 6 to 8. After stirring the suspension gently for 5 minutes, PGα21Ca (Nippon Poly-Glu Co., Ltd.) and/or a microbiostatic agent or microbicide was/were added thereto such that a predetermined final concentration(s) was/were attained. After gentle stirring at room temperature for 10 to 15 minutes, the suspension was left to stand for a predetermined length of time. The supernatant was collected and diluted appropriately in an antimicrobial agent-inactivating medium (BHI medium or the like), and 1 mL each of the resulting diluent was smeared on a film medium. Culturing was carried out at the optimum temperature of each test microbe for 24 to 72 hours and the number of cells (cells/mL) on the film medium was measured.

Bacillus subtilis = assay: as above; conditions: for number of cells 2 hours later: 10 ppm, pH 8, initial 6.0 × 10^4
Protocol: as §1, §2

Listeria monocytogenes = assay: as above; conditions: for number of cells 2 hours later: 10 ppm, pH 8, initial 2.0 × 10^4
Protocol: as §1, §2

Escherichia coli [1] = assay: as above
Protocol: as §1, §2

Pseudomonas aeruginosa = assay: as above; conditions: for number of cells 2 hours later: 10 ppm, pH 8, initial 2.0 × 10^5
Protocol: as §1, §2

Klebsiella pneumoniae = assay: as above; conditions: for number of cells 2 hours later: 10 ppm, pH 8, initial 1.3 × 10^5
Protocol: as §1, §2

Staphylococcus aureus [2] = assay: as above
Protocol: as §1, §2

Bacillus cereus = assay: as above; conditions: for number of cells 2 hours later: 10 ppm, pH 8, initial 9.5 × 10^4
Protocol: as §1, §2

Salmonella enterica = assay: inactivation with further addition of the microorganism after predetermined periods; conditions: ε-poly-L-lysine 5 ppm
Protocol: as §1, §2
(§3) (3) The inactivation effect of ε-poly-L-lysine, which is a microbicide related to the microorganism-inactivating agent of the present invention, upon its single application to water containing Escherichia coli, Salmonella or Staphylococcus, followed by further addition of the respective microorganisms after predetermined periods of time was studied. The addition of the microorganisms was carried out at 24, 48, 72 and 144 hours after sampling. ε-poly-L-lysine was added at a concentration of 5 ppm. […]

Escherichia coli [3] = assay: as above; conditions: ε-poly-L-lysine 5 ppm
Protocol: as §1, §2, §3

Staphylococcus aureus [4] = assay: as above; conditions: ε-poly-L-lysine 5 ppm
Protocol: as §1, §2, §3

[5] = 10 ppm, pH 8, initial 4.7 × 10^4
[6] = 10 ppm, pH 8, initial 5.8 × 10^4
[7] = 10 ppm, pH 8, initial 4.3 × 10^4
[8] = further addition of microbe at 24 h (3.2 × 10^7)
[9] = further addition of microbe at 48 h (3.6 × 10^6)
[10] = further addition of microbe at 72 h (3.0 × 10^6)
[11] = further addition of microbe at 144 h (3.1 × 10^6)
[12] = further addition of microbe at 24 h (1.3 × 10^8)
[13] = further addition of microbe at 48 h (5.0 × 10^6)
[14] = further addition of microbe at 72 h (6.6 × 10^6)
[15] = further addition of microbe at 144 h (1.2 × 10^7)
[16] = further addition of microbe at 24 h (2.2 × 10^7)
[17] = further addition of microbe at 48 h (1.4 × 10^6)
[18] = further addition of microbe at 72 h (6.1 × 10^6)
[19] = further addition of microbe at 144 h (7.9 × 10^6)
[20] = ε-poly-L-lysine 5 ppm, initial 1.2 × 10^7
[21] = ε-poly-L-lysine 10 ppm, 0 minute later 3.2 × 10^5
[22] = ε-poly-L-lysine 10 ppm, initial 1.2 × 10^7
[23] = ε-poly-L-lysine 10 ppm, 0 minute later 2.9 × 10^4
[24] = ε-poly-L-lysine 10 ppm, 0 minute later 8.1 × 10^4
[25] = ε-poly-L-lysine 5 ppm, initial 3.2 × 10^7
[26] = ε-poly-L-lysine 10 ppm, 0 minute later 2.5 × 10^6
[27] = ε-poly-L-lysine 10 ppm, initial 3.2 × 10^7
[28] = ε-poly-L-lysine 10 ppm, 0 minute later 6.2 × 10^5
[29] = ε-poly-L-lysine 10 ppm, 0 minute later 3.3 × 10^5
[30] = ε-poly-L-lysine 10 ppm, 0 minute later 2.3 × 10^4
[31] = ε-poly-L-lysine 10 ppm, 0 minute later 7.5 × 10^4

protamine sulfate
number of cells 2 hours later (Salmonella choleraesuis; [5]): <10 cells/mL
number of cells 2 hours later (Bacillus subtilis): 10 cells/mL
number of cells 2 hours later (Listeria monocytogenes): <10 cells/mL
number of cells 2 hours later (Escherichia coli [1]; [6]): <10 cells/mL
number of cells 2 hours later (Pseudomonas aeruginosa): <10 cells/mL
number of cells 2 hours later (Klebsiella pneumoniae): 10 cells/mL
number of cells 2 hours later (Staphylococcus aureus [2]; [7]): <10 cells/mL
number of cells 2 hours later (Bacillus cereus): 300 cells/mL

ε-poly-L-lysine
number of cells, elapsed time 26 hours (Salmonella enterica; [8]): <10 cells/mL
number of cells, elapsed time 28 hours (Salmonella enterica; [8]): <10 cells/mL
number of cells, elapsed time 48 hours (Salmonella enterica; [8]): <10 cells/mL
number of cells, elapsed time 50 hours (Salmonella enterica; [9]): <10 cells/mL
number of cells, elapsed time 52 hours (Salmonella enterica; [9]): <10 cells/mL
number of cells, elapsed time 72 hours (Salmonella enterica; [9]): <10 cells/mL
number of cells, elapsed time 74 hours (Salmonella enterica; [10]): <10 cells/mL
number of cells, elapsed time 76 hours (Salmonella enterica; [10]): <10 cells/mL
number of cells, elapsed time 96 hours (Salmonella enterica; [10]): <10 cells/mL
number of cells, elapsed time 144 hours (Salmonella enterica; [10]): <10 cells/mL
number of cells, elapsed time 146 hours (Salmonella enterica; [11]): <10 cells/mL
number of cells, elapsed time 148 hours (Salmonella enterica; [11]): <10 cells/mL
number of cells, elapsed time 168 hours (Salmonella enterica; [11]): <10 cells/mL
number of cells, elapsed time 2 hours (Salmonella enterica; initial 3.0 × 10^6): <10 cells/mL
number of cells, elapsed time 4 hours (Salmonella enterica; initial 3.0 × 10^6): <10 cells/mL
number of cells, elapsed time 24 hours (Salmonella enterica; initial 3.0 × 10^6): <10 cells/mL
number of cells, elapsed time 26 hours (Escherichia coli [3]; [12]): <10 cells/mL
number of cells, elapsed time 28 hours (Escherichia coli [3]; [12]): <10 cells/mL
number of cells, elapsed time 48 hours (Escherichia coli [3]; [12]): <10 cells/mL
number of cells, elapsed time 50 hours (Escherichia coli [3]; [13]): <10 cells/mL
number of cells, elapsed time 52 hours (Escherichia coli [3]; [13]): <10 cells/mL
number of cells, elapsed time 72 hours (Escherichia coli [3]; [13]): <10 cells/mL
number of cells, elapsed time 74 hours (Escherichia coli [3]; [14]): <10 cells/mL
number of cells, elapsed time 76 hours (Escherichia coli [3]; [14]): <10 cells/mL
number of cells, elapsed time 96 hours (Escherichia coli [3]; [14]): <10 cells/mL
number of cells, elapsed time 144 hours (Escherichia coli [3]; [14]): <10 cells/mL
number of cells, elapsed time 146 hours (Escherichia coli [3]; [15]): <10 cells/mL
number of cells, elapsed time 148 hours (Escherichia coli [3]; [15]): <10 cells/mL
number of cells, elapsed time 168 hours (Escherichia coli [3]; [15]): <10 cells/mL
number of cells, elapsed time 2 hours (Escherichia coli [3]; initial 1.0 × 10^6): <10 cells/mL
number of cells, elapsed time 4 hours (Escherichia coli [3]; initial 1.0 × 10^6): <10 cells/mL
number of cells, elapsed time 24 hours (Escherichia coli [3]; initial 1.0 × 10^6): <10 cells/mL
number of cells, elapsed time 26 hours (Staphylococcus aureus [4]; [16]): 2.2 × 10^6 cells/mL
number of cells, elapsed time 28 hours (Staphylococcus aureus [4]; [16]): 2.1 × 10^5 cells/mL
number of cells, elapsed time 48 hours (Staphylococcus aureus [4]; [16]): <10 cells/mL
number of cells, elapsed time 50 hours (Staphylococcus aureus [4]; [17]): 2.5 × 10^4 cells/mL
number of cells, elapsed time 52 hours (Staphylococcus aureus [4]; [17]): 1.2 × 10^4 cells/mL
number of cells, elapsed time 72 hours (Staphylococcus aureus [4]; [17]): <10 cells/mL
number of cells, elapsed time 74 hours (Staphylococcus aureus [4]; [18]): 1.7 × 10^3 cells/mL
number of cells, elapsed time 76 hours (Staphylococcus aureus [4]; [18]): 20 cells/mL
number of cells, elapsed time 96 hours (Staphylococcus aureus [4]; [18]): <10 cells/mL
number of cells, elapsed time 144 hours (Staphylococcus aureus [4]; [18]): <10 cells/mL
number of cells, elapsed time 146 hours (Staphylococcus aureus [4]; [19]): 1.0 × 10^3 cells/mL
number of cells, elapsed time 148 hours (Staphylococcus aureus [4]; [19]): 90 cells/mL
number of cells, elapsed time 168 hours (Staphylococcus aureus [4]; [19]): <10 cells/mL
number of cells, elapsed time 2 hours (Staphylococcus aureus [4]; initial 2.0 × 10^6): <10 cells/mL
number of cells, elapsed time 4 hours (Staphylococcus aureus [4]; initial 2.0 × 10^6): <10 cells/mL
number of cells, elapsed time 24 hours (Staphylococcus aureus [4]; initial 2.0 × 10^6): <10 cells/mL
number of cells 2 hours later (Salmonella choleraesuis; [5]): <10 cells/mL
number of cells 0.5 hour later (Salmonella choleraesuis; [20]): 50 cells/mL
number of cells 1 hour later (Salmonella choleraesuis; [20]): 20 cells/mL
number of cells 2 hours later (Salmonella choleraesuis; [20]): <10 cells/mL
number of cells 5 minutes later (Salmonella choleraesuis; [21]): 480 cells/mL
number of cells 15 minutes later (Salmonella choleraesuis; [21]): 1.4 × 10^3 cells/mL
number of cells 60 minutes later (Salmonella choleraesuis; [21]): 120 cells/mL
number of cells 120 minutes later (Salmonella choleraesuis; [21]): <10 cells/mL
number of cells 0.5 hour later (Salmonella choleraesuis; [22]): <10 cells/mL
number of cells 1 hour later (Salmonella choleraesuis; [22]): <10 cells/mL
number of cells 2 hours later (Salmonella choleraesuis; [22]): <10 cells/mL
number of cells 2 hours later (Bacillus subtilis): <10 cells/mL
number of cells 5 minutes later (Bacillus subtilis; [23]): 4 × 10^3 cells/mL
number of cells 15 minutes later (Bacillus subtilis; [23]): 30 cells/mL
number of cells 60 minutes later (Bacillus subtilis; [23]): <10 cells/mL
number of cells 120 minutes later (Bacillus subtilis; [23]): <10 cells/mL
number of cells 2 hours later (Listeria monocytogenes): <10 cells/mL
number of cells 5 minutes later (Listeria monocytogenes; [24]): 780 cells/mL
number of cells 15 minutes later (Listeria monocytogenes; [24]): 40 cells/mL
number of cells 60 minutes later (Listeria monocytogenes; [24]): 20 cells/mL
number of cells 120 minutes later (Listeria monocytogenes; [24]): <10 cells/mL
number of cells 2 hours later (Escherichia coli [1]; [6]): <10 cells/mL
number of cells 0.5 hour later (Escherichia coli [1]; [25]): 3.2 × 10^3 cells/mL
number of cells 1 hour later (Escherichia coli [1]; [25]): <10 cells/mL
number of cells 2 hours later (Escherichia coli [1]; [25]): <10 cells/mL
number of cells 5 minutes later (Escherichia coli [1]; [26]): 1.32 × 10^4 cells/mL
number of cells 15 minutes later (Escherichia coli [1]; [26]): 10 cells/mL
number of cells 60 minutes later (Escherichia coli [1]; [26]): <10 cells/mL
number of cells 120 minutes later (Escherichia coli [1]; [26]): <10 cells/mL
number of cells 0.5 hour later (Escherichia coli [1]; [27]): 300 cells/mL
number of cells 1 hour later (Escherichia coli [1]; [27]): <10 cells/mL
number of cells 2 hours later (Escherichia coli [1]; [27]): <10 cells/mL
number of cells 2 hours later (Pseudomonas aeruginosa): <10 cells/mL
number of cells 5 minutes later (Pseudomonas aeruginosa; [28]): 2.16 × 10^4 cells/mL
number of cells 15 minutes later (Pseudomonas aeruginosa; [28]): 240 cells/mL
number of cells 60 minutes later (Pseudomonas aeruginosa; [28]): 20 cells/mL
number of cells 120 minutes later (Pseudomonas aeruginosa; [28]): <10 cells/mL
number of cells 2 hours later (Klebsiella pneumoniae): <10 cells/mL
number of cells 5 minutes later (Klebsiella pneumoniae; [29]): 1.8 × 10^4 cells/mL
number of cells 15 minutes later (Klebsiella pneumoniae; [29]): 1.87 × 10^3 cells/mL
number of cells 60 minutes later (Klebsiella pneumoniae; [29]): 10 cells/mL
number of cells 120 minutes later (Klebsiella pneumoniae; [29]): <10 cells/mL
number of cells 2 hours later (Staphylococcus aureus [2]; [7]): <10 cells/mL
number of cells 0.5 hour later (Staphylococcus aureus [2]; [20]): 4.0 × 10^4 cells/mL
number of cells 1 hour later (Staphylococcus aureus [2]; [20]): 2.2 × 10^4 cells/mL
number of cells 2 hours later (Staphylococcus aureus [2]; [20]): 4.2 × 10^3 cells/mL
number of cells 5 minutes later (Staphylococcus aureus [2]; [30]): 8.1 × 10^3 cells/mL
number of cells 15 minutes later (Staphylococcus aureus [2]; [30]): 2.55 × 10^3 cells/mL
number of cells 60 minutes later (Staphylococcus aureus [2]; [30]): 2 × 10^3 cells/mL
number of cells 120 minutes later (Staphylococcus aureus [2]; [30]): 440 cells/mL
number of cells 0.5 hour later (Staphylococcus aureus [2]; [22]): 5.0 × 10^4 cells/mL
number of cells 1 hour later (Staphylococcus aureus [2]; [22]): 7.0 × 10^3 cells/mL
number of cells 2 hours later (Staphylococcus aureus [2]; [22]): 4.8 × 10^3 cells/mL
number of cells 2 hours later (Bacillus cereus): 290 cells/mL
number of cells 5 minutes later (Bacillus cereus; [31]): 140 cells/mL
number of cells 15 minutes later (Bacillus cereus; [31]): 110 cells/mL
number of cells 60 minutes later (Bacillus cereus; [31]): 80 cells/mL
number of cells 120 minutes later (Bacillus cereus; [31]): <10 cells/mL
